Experimental findings from US20210238225A1, “PEPTIDOMIMETIC INHIBITORS OF THE PEPTIDYL-PROLYL CIS/TRANS ISOMERASE (PIN1)” (DANA-FARBER CANCER INSTITUTE, INC., priority 2018, published 2021) are described below.

Each structure is given as a SMILES string. Read-outs that look alike come from different tables or passages of the source. Non-standard residues stand in square brackets, D forms with d. Residues, ends and D or L forms follow the SMILES beside them. *: point of attachment. Phe(4-F) = N[C@@H](Cc1ccc(F)cc1)C(=O)O; Bta = N[C@@H](Cc1csc2ccccc12)C(=O)O; NH(4-Me-benzyl) = Cc1ccc(CN*)cc1; NMeF = CN[C@@H](Cc1ccccc1)C(=O)O; hPhe = N[C@@H](CCc1ccccc1)C(=O)O; Cit = NC(=O)NCCC[C@H](N)C(=O)O; Pip = O=C(O)[C@@H]1CCCCN1; Piperidide = C1CCN(*)CC1; Fluoroacetyl = O=C(CF)*; Acryloyl = C=CC(=O)*; NHcBu = C1CC(N*)C1; X3 = C=CS(=O)(=O)*; X6 = CC(Cl)C(=O)*; ClAc = O=C(CCl)*; X1 = O=C(C1CO1)*

For this test, the target named is Pin1 (GST-Pin1) (Homo sapiens, UniProt Q13526). In words: Fluorescence polarization (FP) assay, binding to Pin1. Conditions: competition with fluorescein-labeled peptide probe, 12 hours pre-incubation at 4° C., Kenakin Ki equation. (In general: Fluorescence polarisation rises when a labelled molecule tumbles more slowly, as on binding a larger partner.)
Pin1 (GST-Pin1), sequence (Q13526 whole entry): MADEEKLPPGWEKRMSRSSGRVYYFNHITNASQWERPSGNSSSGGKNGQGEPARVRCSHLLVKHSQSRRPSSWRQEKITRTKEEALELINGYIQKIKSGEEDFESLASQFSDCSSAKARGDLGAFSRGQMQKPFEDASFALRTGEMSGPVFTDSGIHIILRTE

The term Ki denotes the equilibrium dissociation constant of an inhibitor or competing ligand from its target. Consider `Cc1ccc(CNC(=O)[C@H](CCCNC(N)=O)NC(=O)[C@H](Cc2csc3ccccc23)NC(=O)[C@@H]2CCCCN2C(=O)[C@H](Cc2ccccc2)NC(=O)CCl)cc1` [Compound 11-33, (S)—N—((S)-3-(benzo[6]thiophen-3-yl)-1-(((S)-1-((4-methylbenzyl)amino)-1-oxo-5-ureidopentan-2-yl)amino)-1-oxopropan-2-yl)-1-((2-chloroacetyl)-L-phenylalanyl)-piperidine-2-carboxamide] (ClAc-F[Pip][Bta][Cit]-{NH(4-Me-benzyl)}), for which, where the note is “read-out: Ki, μM (FP Assay)”, the Ki amounted to 0.028 µM. Turning to `Cc1ccc(CNC(=O)[C@H](CCCNC(N)=O)NC(=O)[C@H](Cc2c[nH]c3ccccc23)NC(=O)[C@@H]2CCCCN2C(=O)[C@H](Cc2ccccc2)NC(=O)C(C)Cl)cc1` (stereo partly drawn) [Compound 11-34, (2S)—N—((S)-3-(1H-indol-3-yl)-1-(((S)-1-((4-methylbenzyl)amino)-1-oxo-5-ureidopentan-2-yl)amino)-1-oxopropan-2-yl)-1-((2-chloropropanoyl)-L-phenylalanyl)piperidine-2-carboxamide] (X6-F[Pip]W[Cit]-{NH(4-Me-benzyl)}), for the setting “read-out: Ki, μM (FP Assay)”, the Ki was more than 10 µM. The same measure, in the same setting: with `C=CC(=O)N[C@@H](Cc1ccccc1)C(=O)N1CCCC[C@H]1C(=O)N[C@@H](Cc1c[nH]c2ccccc12)C(=O)N[C@@H](CCCNC(N)=O)C(=O)NCc1ccc(C)cc1` [Compound 11-35, (S)—N—((S)-3-(1H-indol-3-yl)-1-(((S)-1-((4-methylbenzyl)amino)-1-oxo-5-ureidopentan-2-yl)amino)-1-oxopropan-2-yl)-1-(acryloyl-L-phenylalanyl)piperidine-2-carboxamide] (Acryloyl-F[Pip]W[Cit]-{NH(4-Me-benzyl)}) the figure was more than 10 µM. As for `CC(=O)N[C@@H](Cc1ccccc1)C(=O)N1CCCC[C@H]1C(=O)N[C@@H](Cc1c[nH]c2ccccc12)C(=O)N[C@@H](CCCNC(N)=O)C(=O)NCc1ccc(C)cc1` [Compound 11-36, (S)—N—((S)-3-(1H-Indol-3-yl)-1-(((S)-1-((4-methylbenzyl)amino)-1-oxo-5-ureidopentan-2-yl)amino)-1-oxopropan-2-yl)-1-(acetyl-L-phenylalanyl)piperidine-2-carboxamide] (Ac-F[Pip]W[Cit]-{NH(4-Me-benzyl)}), the Ki (read-out: Ki, μM (FP Assay)) was more than 10 µM. Consider `NC(=O)NCCC[C@H](NC(=O)[C@H](Cc1c[nH]c2ccccc12)NC(=O)[C@@H]1CCCCN1C(=O)[C@H](Cc1ccccc1)NC(=O)CCl)C(=O)NC1CCC1` [Compound 11-37, (S)-1-((2-Chloroacetyl)-L-phenylalanyl)-N—((S)-1-(((S)-1-(cyclobutylamino)-1-oxo-5-ureidopentan-2-yl)amino)-3-(1H-indol-3-yl)-1-oxopropan-2-yl)piperidine-2-carboxamide] (ClAc-F[Pip]W[Cit]-NHcBu), for which, under “read-out: Ki, μM (FP Assay)”, the Ki came out at 0.026 µM. `NC(=O)NCCC[C@H](NC(=O)[C@H](Cc1c[nH]c2ccccc12)NC(=O)[C@@H]1CCCCN1C(=O)[C@H](CCc1ccccc1)NC(=O)CCl)C(=O)N1CCCCC1` [Compound 11-40, (S)—N—((S)-3-(1H-Indol-3-yl)-1-oxo-1-(((S)-1-oxo-1-(piperidin-1-yl)-5-ureidopentan-2-yl)amino)propan-2-yl)-1-((S)-2-(2-chloroacetamido)-4-phenylbutanoyl)piperidine-2-carboxamide] (ClAc-[hPhe][Pip]W[Cit]-Piperidide) yielded a Ki (Ki, μM (FP Assay)) of 0.087 µM.

Take `O=C(CCl)N[C@@H](Cc1ccccc1)C(=O)N1CCCC[C@H]1C(=O)N[C@@H](Cc1c[nH]c2ccccc12)C(=O)N[C@@H](Cc1ccccc1)C(=O)N1CCCCC1` [Compound 11-41, (S)—N—((S)-3-(1H-Indol-3-yl)-1-oxo-1-(((S)-1-oxo-3-phenyl-1-(piperidin-1-yl)propan-2-yl)amino)propan-2-yl)-1-((2-chloroacetyl)-L-phenylalanyl)piperidine-2-carboxamide] (ClAc-F[Pip]WF-Piperidide): the Ki (read-out: Ki, μM (FP Assay)) stood at 0.151 µM.

Consider `CN(C(=O)CCl)[C@@H](Cc1ccccc1)C(=O)N1CCCC[C@H]1C(=O)N[C@@H](Cc1csc2ccccc12)C(=O)N[C@@H](CCCNC(N)=O)C(=O)N1CCCCC1` [Compound 11-42, (S)—N—((S)-3-(Benzo[6]thiophen-3-yl)-1-oxo-1-(((S)-1-oxo-1-(piperidin-1-yl)-5-ureidopentan-2-yl)amino)propan-2-yl)-1-(N-(2-chloroacetyl)-N-methyl-L-phenylalanyl)piperidine-2-carboxamide] (ClAc-[NMeF][Pip][Bta][Cit]-Piperidide), for which the Ki (read-out: Ki, μM (FP Assay)) was 0.109 µM. As to `CN(C(=O)CCl)[C@@H](Cc1ccccc1)C(=O)N1CCCC[C@H]1C(=O)N[C@@H](Cc1c[nH]c2ccccc12)C(=O)N[C@@H](Cc1ccc(F)cc1)C(=O)N1CCCCC1` [Compound 11-43, (S)-1-(N-(2-Chloroacetyl)-N-methyl-L-phenylalanyl)-N—((S)-1-(((S)-3-(4-fluorophenyl)-1-oxo-1-(piperidin-1-yl)propan-2-yl)amino)-3-(1H-indol-3-yl)-1-oxopropan-2-yl)piperidine-2-carboxamide] (ClAc-[NMeF][Pip]W[Phe(4-F)]-Piperidide), the Ki (read-out: Ki, μM (FP Assay)) turned out to be 0.172 µM.

As to `CN(C(=O)CCl)[C@@H](Cc1ccccc1)C(=O)N1CCCC[C@H]1C(=O)N[C@@H](Cc1c[nH]c2ccccc12)C(=O)N[C@@H](CCc1ccccc1)C(=O)N1CCCCC1` [Compound 11-44, (S)—N—((S)-3-(1H-Indol-3-yl)-1-oxo-1-(((S)-1-oxo-4-phenyl-1-(piperidin-1-yl)butan-2-yl)amino)propan-2-yl)-1-(N-(2-chloroacetyl)-N-methyl-L-phenylalanyl)piperidine-2-carboxamide] (ClAc-[NMeF][Pip]W[hPhe]-Piperidide), the Ki (read-out: Ki, μM (FP Assay)) came out at 1.5 µM.

Take `CN(C(=O)CCl)[C@@H](Cc1ccccc1)C(=O)N1CCCC[C@H]1C(=O)N[C@@H](Cc1c[nH]c2ccccc12)C(=O)N1CCCCC1` [Compound 11-45, (S)—N—((S)-3-(1H-indol-3-yl)-1-oxo-1-(piperidin-1-yl)propan-2-yl)-1-(N-(2-chloroacetyl)-N-methyl-L-phenylalanyl)piperidine-2-carboxamide] (ClAc-[NMeF]-[Pip]-Trp-Piperidide): the Ki (read-out: Ki, μM (FP Assay)) is more than 1 µM.

Take `Cc1ccc(CNC(=O)[C@H](CCCNC(N)=O)NC(=O)[C@H](Cc2c[nH]c3ccccc23)NC(=O)[C@@H]2CCCCN2C(=O)[C@H](Cc2ccccc2)NCC#N)cc1` [Compound 12, (S)—N—((S)-3-(1H-indol-3-yl)-1-(((S)-1-((4-methylbenzyl)amino)-1-oxo-5-ureidopentan-2-yl)amino)-1-oxopropan-2-yl)-1-((cyanomethyl)-L-phenylalanyl)piperidine-2-carboxamide]: under “read-out: Ki, μM (FP Assay)”, the Ki is more than 10 µM. Regarding `Cc1ccc(CNC(=O)[C@H](CCCNC(N)=O)NC(=O)[C@H](Cc2c[nH]c3ccccc23)NC(=O)[C@@H]2CCCCN2C(=O)[C@H](Cc2ccccc2)NC(=O)C2CO2)cc1` (stereo partly drawn) [Compound 13, (2S)—N—((S)-3-(1H-Indol-3-yl)-1-(((S)-1-((4-methylbenzyl)amino)-1-oxo-5-ureidopentan-2-yl)amino)-1-oxopropan-2-yl)-1-((oxirane-2-carbonyl)-L-phenylalanyl)piperidine-2-carboxamide] (X1-F[Pip]W[Cit]-{NH(4-Me-benzyl)}), the Ki (read-out: Ki, μM (FP Assay)) was 4.43 µM. For `C=CS(=O)(=O)N[C@@H](Cc1ccccc1)C(=O)N1CCCC[C@H]1C(=O)N[C@@H](Cc1c[nH]c2ccccc12)C(=O)N[C@@H](CCCNC(N)=O)C(=O)NCc1ccc(C)cc1` [Compound 14, (S)—N—((S)-3-(1H-indol-3-yl)-1-(((S)-1-((4-methylbenzyl)amino)-1-oxo-5-ureidopentan-2-yl)amino)-1-oxopropan-2-yl)-1-((vinylsulfonyl)-L-phenylalanyl)piperidine-2-carboxamide] (X3-F[Pip]W[Cit]-{NH(4-Me-benzyl)}), under “read-out: Ki, μM (FP Assay)”, the Ki amounted to 0.143 µM. Where the note is “Ki, μM (FP Assay)”, `Cc1ccc(CNC(=O)[C@H](CCCNC(N)=O)NC(=O)[C@H](Cc2c[nH]c3ccccc23)NC(=O)[C@@H]2CCCCN2C(=O)[C@H](Cc2ccccc2)NC(=O)CF)cc1` [Compound 15, (S)—N—((S)-3-(1H-Indol-3-yl)-1-(((S)-1-((4-methylbenzyl)amino)-1-oxo-5-ureidopentan-2-yl)amino)-1-oxopropan-2-yl)-1-((2-fluoroacetyl)-L-phenylalanyl)piperidine-2-carboxamide] (Fluoroacetyl-F[Pip]W[Cit]-{NH(4-Me-benzyl)}) registered a Ki of more than 10 µM.
